Measurements taken from ChEMBL document CHEMBL1157659, “Design, synthesis, and biological evaluation of 3-[4-(2-hydroxyethyl)piperazin-1-yl]-7-(6-methoxypyridin-3-yl)-1-(2-propoxyethyl)pyrido[3,4-b]pyrazin-2(1H)-one, a potent, orally active, brain penetrant inhibitor of phosphodiesterase 5 (PDE5)” (J Med Chem, 2010).
The source made the active and inactive calls. The calls are words filed in the database; no cut-off is given here.

Key:
Homo sapiens [1] = species on record: Homo sapiens; assay: Selectivity ratio of IC50 for human recombinant PDE11 to IC50 for human platelet PDE5
[2] = Metabolic stability in rat microsomes assessed as compound remaining after 30 mins; format: ADME, Microsome; settings: read-out: Stability
Homo sapiens [3] = species on record: Homo sapiens; assay: Plasma protein binding in human; settings: read-out: PPB (converted)
Homo sapiens [4] = species on record: Homo sapiens; assay: Fraction unbound in human plasma
[5] = Plasma protein binding in rat; format: ADME, cell-free; settings: read-out: PPB (converted)
[6] = Fraction unbound in rat plasma; format: ADME, cell-free
[7] = Metabolic stability in human microsomes assessed as compound remaining after 30 mins; format: ADME, Microsome; settings: read-out: Stability
[8] = Clearance in Sprague-Dawley rat at 1 mg/kg, iv; format: ADME, organism-based; design: dose 1 mg/kg, route intravenous; settings: in vivo
Homo sapiens [9] = species on record: Homo sapiens; assay: Selectivity ratio of IC50 for human retina PDE6 to IC50 for human platelet PDE5
[10] = Aqueous solubility at pH 7.4; format: physicochemical
[11] = target: Voltage-gated inwardly rectifying potassium channel KCNH2 (Homo sapiens, UniProt Q12809); assay: Inhibition of human ERG by patch-clamp method
Sequence of Voltage-gated inwardly rectifying potassium channel KCNH2 (Q12809 whole entry): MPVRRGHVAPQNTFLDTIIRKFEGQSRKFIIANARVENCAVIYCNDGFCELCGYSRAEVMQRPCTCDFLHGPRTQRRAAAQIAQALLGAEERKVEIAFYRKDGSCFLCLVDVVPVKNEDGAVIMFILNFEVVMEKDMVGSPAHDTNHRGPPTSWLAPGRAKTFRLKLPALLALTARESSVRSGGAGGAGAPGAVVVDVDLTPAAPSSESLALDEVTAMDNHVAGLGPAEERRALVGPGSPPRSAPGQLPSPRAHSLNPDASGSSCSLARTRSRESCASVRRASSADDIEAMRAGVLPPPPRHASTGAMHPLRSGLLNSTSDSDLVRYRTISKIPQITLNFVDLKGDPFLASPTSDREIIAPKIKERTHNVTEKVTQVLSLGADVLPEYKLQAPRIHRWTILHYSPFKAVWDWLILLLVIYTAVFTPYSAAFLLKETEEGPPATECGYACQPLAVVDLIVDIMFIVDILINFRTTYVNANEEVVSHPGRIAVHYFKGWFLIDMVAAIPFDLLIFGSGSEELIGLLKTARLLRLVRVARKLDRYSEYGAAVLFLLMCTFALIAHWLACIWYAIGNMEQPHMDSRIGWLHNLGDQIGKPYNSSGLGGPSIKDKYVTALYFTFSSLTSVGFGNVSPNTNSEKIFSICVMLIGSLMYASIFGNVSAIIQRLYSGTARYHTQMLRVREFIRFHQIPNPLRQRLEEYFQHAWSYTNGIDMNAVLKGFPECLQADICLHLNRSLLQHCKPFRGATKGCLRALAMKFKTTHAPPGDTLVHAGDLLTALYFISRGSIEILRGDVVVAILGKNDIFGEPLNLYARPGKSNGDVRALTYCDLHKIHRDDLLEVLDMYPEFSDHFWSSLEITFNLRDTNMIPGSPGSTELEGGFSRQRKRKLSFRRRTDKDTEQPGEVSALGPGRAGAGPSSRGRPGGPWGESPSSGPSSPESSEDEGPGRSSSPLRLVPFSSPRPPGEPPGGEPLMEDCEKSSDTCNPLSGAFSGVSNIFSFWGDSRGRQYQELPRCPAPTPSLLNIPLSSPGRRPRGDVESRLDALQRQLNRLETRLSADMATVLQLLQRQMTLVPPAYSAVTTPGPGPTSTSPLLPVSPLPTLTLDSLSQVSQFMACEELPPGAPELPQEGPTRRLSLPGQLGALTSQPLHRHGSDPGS

Plasma [12] = assay: Fraction unbound in human plasma; format: ADME, cell-free
Plasma [13] = assay: Plasma protein binding in human; format: ADME, cell-free
[14] = target: cGMP-specific 3',5'-cyclic phosphodiesterase (Homo sapiens, UniProt O76074); assay: Inhibition of human platelet PDE5 assessed as reduction in conversion of [3H]cGMP to [3H]GMP after 2 hr by scintillation proximity assay
[15] = Inhibition of PDE7
Rattus norvegicus [16] = assay: Free plasma concentration in iv dosed anesthetized SHR rat administered as three successive escalating doses; format: ADME, organism-based; settings: in vivo
Rattus norvegicus [17] = assay: Toxicity in iv dosed SHR rat administered as three successive escalating doses; format: organism-based; settings: in vivo
[18] = target: 3',5'-cyclic-AMP phosphodiesterase 4C (Homo sapiens, UniProt Q08493); assay: Inhibition of PDE4C
Sequence of 3',5'-cyclic-AMP phosphodiesterase 4C (Q08493 whole entry): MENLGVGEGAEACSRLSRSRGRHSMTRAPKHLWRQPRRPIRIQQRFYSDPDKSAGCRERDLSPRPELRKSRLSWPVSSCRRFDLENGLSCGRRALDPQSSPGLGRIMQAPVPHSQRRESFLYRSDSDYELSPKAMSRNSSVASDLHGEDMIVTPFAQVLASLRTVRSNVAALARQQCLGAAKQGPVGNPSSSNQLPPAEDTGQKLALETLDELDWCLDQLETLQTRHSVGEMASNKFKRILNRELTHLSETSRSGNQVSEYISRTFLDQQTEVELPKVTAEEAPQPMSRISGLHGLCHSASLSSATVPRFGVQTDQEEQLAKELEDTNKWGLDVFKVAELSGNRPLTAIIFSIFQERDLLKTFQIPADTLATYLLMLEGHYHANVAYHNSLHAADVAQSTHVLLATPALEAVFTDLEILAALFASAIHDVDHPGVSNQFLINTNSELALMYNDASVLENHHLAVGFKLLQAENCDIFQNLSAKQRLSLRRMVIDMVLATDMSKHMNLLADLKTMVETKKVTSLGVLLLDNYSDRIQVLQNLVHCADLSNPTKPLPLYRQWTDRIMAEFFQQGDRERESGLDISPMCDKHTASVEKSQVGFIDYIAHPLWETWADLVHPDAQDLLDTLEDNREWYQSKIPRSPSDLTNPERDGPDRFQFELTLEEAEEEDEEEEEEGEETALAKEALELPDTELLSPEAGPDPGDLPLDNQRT

[19] = Ratio of drug level in brain to blood in Sprague-Dawley rat at 10 mg/kg, sc administered as single dose measured after 2 hrs; format: ADME, organism-based; design: dose 10 mg/kg, route subcutaneous; settings: read-out: BBR
[20] = Tmax in healthy human; format: ADME, organism-based; settings: in vivo
[21] = Inhibition of PDE9
[22] = target: Dual specificity calcium/calmodulin-dependent 3',5'-cyclic nucleotide phosphodiesterase 1C (Homo sapiens, UniProt Q14123); assay: Inhibition of PDE1C
[23] = target: Dual specificity calcium/calmodulin-dependent 3',5'-cyclic nucleotide phosphodiesterase 1B (Homo sapiens, UniProt Q01064); assay: Inhibition of PDE1B
Sequence of Dual specificity calcium/calmodulin-dependent 3',5'-cyclic nucleotide phosphodiesterase 1B (Q01064 whole entry): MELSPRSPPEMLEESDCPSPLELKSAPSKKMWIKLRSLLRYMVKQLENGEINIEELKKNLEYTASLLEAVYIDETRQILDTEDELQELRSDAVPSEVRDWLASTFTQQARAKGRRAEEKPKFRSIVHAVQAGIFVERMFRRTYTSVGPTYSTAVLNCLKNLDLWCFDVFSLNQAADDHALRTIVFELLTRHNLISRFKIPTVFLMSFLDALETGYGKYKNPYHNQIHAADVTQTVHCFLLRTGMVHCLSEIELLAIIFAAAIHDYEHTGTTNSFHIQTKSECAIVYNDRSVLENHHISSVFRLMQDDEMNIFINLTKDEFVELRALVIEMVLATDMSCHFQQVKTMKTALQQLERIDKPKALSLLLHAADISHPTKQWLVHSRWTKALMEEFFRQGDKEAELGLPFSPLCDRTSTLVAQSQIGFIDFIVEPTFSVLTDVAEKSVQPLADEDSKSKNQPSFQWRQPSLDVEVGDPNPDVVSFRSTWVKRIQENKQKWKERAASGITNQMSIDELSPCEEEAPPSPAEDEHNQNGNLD

[24] = Bioavailability in dog; format: ADME, organism-based, Canis lupus familiaris; settings: in vivo
[25] = target: 3',5'-cyclic-AMP phosphodiesterase 4D (Homo sapiens, UniProt Q08499); assay: Inhibition of PDE4D
Sequence of 3',5'-cyclic-AMP phosphodiesterase 4D (Q08499 whole entry): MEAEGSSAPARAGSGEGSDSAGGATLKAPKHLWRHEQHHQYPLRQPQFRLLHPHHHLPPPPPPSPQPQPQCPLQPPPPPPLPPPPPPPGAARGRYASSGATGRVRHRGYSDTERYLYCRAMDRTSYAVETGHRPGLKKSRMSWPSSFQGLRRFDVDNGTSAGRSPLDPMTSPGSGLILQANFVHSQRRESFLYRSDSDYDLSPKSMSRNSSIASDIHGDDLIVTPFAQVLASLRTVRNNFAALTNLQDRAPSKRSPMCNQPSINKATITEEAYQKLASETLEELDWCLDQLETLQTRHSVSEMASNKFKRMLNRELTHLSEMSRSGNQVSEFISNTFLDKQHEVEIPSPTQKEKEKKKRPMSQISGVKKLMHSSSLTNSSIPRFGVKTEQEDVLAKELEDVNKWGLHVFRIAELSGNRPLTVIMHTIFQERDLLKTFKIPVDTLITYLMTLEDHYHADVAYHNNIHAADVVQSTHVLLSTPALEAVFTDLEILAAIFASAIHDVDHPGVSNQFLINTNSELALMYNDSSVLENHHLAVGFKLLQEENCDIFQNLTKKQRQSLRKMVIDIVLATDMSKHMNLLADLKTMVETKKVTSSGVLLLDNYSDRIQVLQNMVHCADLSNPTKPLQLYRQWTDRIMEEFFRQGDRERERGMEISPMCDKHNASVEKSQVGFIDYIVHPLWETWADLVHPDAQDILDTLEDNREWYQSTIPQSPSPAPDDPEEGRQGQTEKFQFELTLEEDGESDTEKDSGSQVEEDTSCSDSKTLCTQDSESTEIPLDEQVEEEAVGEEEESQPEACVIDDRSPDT

[26] = Clearance in dog; format: ADME, organism-based, Canis lupus familiaris; settings: in vivo
[27] = Ratio of free drug level in iv dosed SHR rat plasma administered as three successive escalating doses to IC50 for human platelet PDE5; format: ADME, organism-based; settings: in vivo
[28] = Renal clearance in Sprague-Dawley rat as % compound recovered; format: ADME, organism-based, Kidney; settings: urine, read-out: Recovered in urine
[29] = Elimination half life in healthy human; format: ADME, organism-based; settings: in vivo, read-out: beta t1/2 (converted)
[30] = target: High affinity cAMP-specific and IBMX-insensitive 3',5'-cyclic phosphodiesterase 8B (Homo sapiens, UniProt O95263); assay: Inhibition of PDE8B
[31] = Inhibition of PDE2
[32] = Oral bioavailability in Sprague-Dawley rat at 1 mg/kg; format: ADME, organism-based; settings: in vivo
[33] = target: Dual specificity calcium/calmodulin-dependent 3',5'-cyclic nucleotide phosphodiesterase 1A (Homo sapiens, UniProt P54750); assay: Inhibition of PDE1A
[34] = target: 3',5'-cyclic-AMP phosphodiesterase 4B (Homo sapiens, UniProt Q07343); assay: Inhibition of PDE4B
Sequence of 3',5'-cyclic-AMP phosphodiesterase 4B (Q07343 whole entry): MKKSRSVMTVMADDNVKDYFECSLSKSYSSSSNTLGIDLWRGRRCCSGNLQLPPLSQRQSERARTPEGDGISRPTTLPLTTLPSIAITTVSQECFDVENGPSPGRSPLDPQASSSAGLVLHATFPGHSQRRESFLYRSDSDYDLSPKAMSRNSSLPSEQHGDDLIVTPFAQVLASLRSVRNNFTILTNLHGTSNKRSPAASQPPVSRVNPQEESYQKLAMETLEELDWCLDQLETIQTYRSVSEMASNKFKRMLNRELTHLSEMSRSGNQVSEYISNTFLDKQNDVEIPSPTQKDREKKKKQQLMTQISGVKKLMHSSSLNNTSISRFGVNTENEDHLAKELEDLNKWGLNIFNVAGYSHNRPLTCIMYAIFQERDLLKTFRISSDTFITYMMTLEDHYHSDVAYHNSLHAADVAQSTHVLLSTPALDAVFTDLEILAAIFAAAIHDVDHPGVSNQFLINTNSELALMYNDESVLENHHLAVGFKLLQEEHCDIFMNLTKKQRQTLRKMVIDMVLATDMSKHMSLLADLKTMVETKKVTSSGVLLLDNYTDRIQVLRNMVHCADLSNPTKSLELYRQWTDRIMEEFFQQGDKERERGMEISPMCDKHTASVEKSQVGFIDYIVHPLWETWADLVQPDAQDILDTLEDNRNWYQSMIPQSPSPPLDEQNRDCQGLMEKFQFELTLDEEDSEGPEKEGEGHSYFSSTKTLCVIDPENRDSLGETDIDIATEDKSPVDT

[35] = Renal clearance in dog as % compound recovered; format: ADME, organism-based, Canis lupus familiaris, Kidney; settings: urine, read-out: Recovered in urine
[36] = target: High affinity cAMP-specific and IBMX-insensitive 3',5'-cyclic phosphodiesterase 8A (Homo sapiens, UniProt O60658); assay: Inhibition of PDE8A
[37] = target: cGMP-inhibited 3',5'-cyclic phosphodiesterase 3A (Homo sapiens, UniProt Q14432); assay: Inhibition of PDE3A
Sequence of cGMP-inhibited 3',5'-cyclic phosphodiesterase 3A (Q14432 whole entry): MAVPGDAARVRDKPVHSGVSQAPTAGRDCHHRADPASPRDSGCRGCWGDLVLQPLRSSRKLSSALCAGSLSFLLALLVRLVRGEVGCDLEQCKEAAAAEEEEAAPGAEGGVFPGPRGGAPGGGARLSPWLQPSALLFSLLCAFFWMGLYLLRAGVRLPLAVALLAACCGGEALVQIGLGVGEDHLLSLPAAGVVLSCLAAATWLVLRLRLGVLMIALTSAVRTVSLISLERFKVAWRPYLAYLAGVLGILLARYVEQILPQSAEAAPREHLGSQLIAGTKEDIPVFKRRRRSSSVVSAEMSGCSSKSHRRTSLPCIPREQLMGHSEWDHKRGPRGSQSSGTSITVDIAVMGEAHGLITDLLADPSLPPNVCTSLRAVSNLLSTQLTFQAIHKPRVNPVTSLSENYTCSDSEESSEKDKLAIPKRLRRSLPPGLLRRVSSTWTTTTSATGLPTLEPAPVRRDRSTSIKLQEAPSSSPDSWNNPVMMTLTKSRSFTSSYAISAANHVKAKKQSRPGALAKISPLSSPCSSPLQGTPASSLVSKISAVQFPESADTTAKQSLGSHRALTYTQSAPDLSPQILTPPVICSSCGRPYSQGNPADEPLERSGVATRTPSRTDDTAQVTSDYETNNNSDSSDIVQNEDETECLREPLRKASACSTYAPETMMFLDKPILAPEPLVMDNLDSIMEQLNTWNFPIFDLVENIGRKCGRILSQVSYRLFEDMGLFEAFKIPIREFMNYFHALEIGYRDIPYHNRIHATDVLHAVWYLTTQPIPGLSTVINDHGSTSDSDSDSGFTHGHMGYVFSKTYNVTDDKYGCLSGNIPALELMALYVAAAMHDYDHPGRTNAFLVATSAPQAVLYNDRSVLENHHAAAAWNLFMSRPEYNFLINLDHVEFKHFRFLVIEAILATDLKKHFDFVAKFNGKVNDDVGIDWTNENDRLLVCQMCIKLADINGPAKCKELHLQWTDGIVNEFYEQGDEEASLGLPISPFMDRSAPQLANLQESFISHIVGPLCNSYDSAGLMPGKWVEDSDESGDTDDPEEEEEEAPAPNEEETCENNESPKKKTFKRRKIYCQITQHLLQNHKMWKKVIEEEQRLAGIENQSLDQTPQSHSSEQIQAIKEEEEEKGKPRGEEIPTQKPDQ

Rattus norvegicus [38] = assay: Antihypertensive activity in iv dosed anesthetized SHR rat assessed as reduction of systemic arterial blood pressure at free plasma concentration of 2.3 nM; format: functional, organism-based; settings: Artery
[39] = target: cGMP-inhibited 3',5'-cyclic phosphodiesterase 3B (Homo sapiens, UniProt Q13370); assay: Inhibition of PDE3B
Rattus norvegicus [40] = assay: Antihypertensive activity in iv dosed anesthetized SHR rat assessed as reduction of systemic arterial blood pressure administered as three successive escalating doses measured during 30 to 50 mins portion of each 1 hr steady state infusion; format: functional, organism-based; settings: Artery
[41] = Metabolic stability in cannulated Sprague-Dawley rat bile duct assessed as compound remaining after 6 hrs; format: ADME; settings: read-out: Stability
Rattus norvegicus [42] = assay: Antihypertensive activity in anesthetized SHR rat assessed as reduction of systolic blood pressure at 2 mg/kg, po after 24 hrs relative to control; format: functional, Artery
[43] = target: 3',5'-cyclic-AMP phosphodiesterase 4A (Homo sapiens, UniProt P27815); assay: Inhibition of PDE4A
[44] = target: 3',5'-cyclic-AMP phosphodiesterase 7B (Homo sapiens, UniProt Q9NP56); assay: Inhibition of PDE7B

CCCOCCn1c(=O)c(NCCNCCO)nc2cnc(-c3ccc(OC)nc3)cc21
Ratio IC50 (Homo sapiens [1]): > 1780
remaining at 0.5 h [2]: 100%
fraction unbound (Homo sapiens [3]): 0.212
fraction unbound (Homo sapiens [4]): 0.18
fraction unbound [5]: 0.226
fraction unbound [6]: 0.18
remaining at 0.5 h [7]: 95%
clearance [8]: 582 mL/min/kg
Ratio IC50 (Homo sapiens [9]): 242
solubility [10]: > 100 µM
IC50 [11]: 4500 nM

CCCOCCn1c(=O)c(NCCN)nc2cnc(-c3ccc(OC)nc3)cc21
Ratio IC50 (Homo sapiens [1]): > 8000
remaining at 0.5 h [2]: 98%
fraction unbound [5]: 0.166
fraction unbound [6]: 0.18
Fu (Plasma [12]): 18%
remaining at 0.5 h [7]: 97%
clearance [8]: 170 mL/min/kg
PPB (Plasma [13]): 69.4%
Ratio IC50 (Homo sapiens [9]): 4840
solubility [10]: > 100 µM

CCCOCCn1c(=O)c(N2CCN(C[C@H](C)O)CC2)nc2cnc(-c3ccc(OC)nc3)cc21
Ratio IC50 (Homo sapiens [1]): 1400
IC50 [14]: 0.31 nM
Ratio IC50 (Homo sapiens [9]): 49

CCCOCCn1c(=O)c(N2CCN(C[C@@H](C)O)CC2)nc2cnc(-c3ccc(OC)nc3)cc21
Ratio IC50 (Homo sapiens [1]): 2380
IC50 [14]: 0.23 nM
Ratio IC50 (Homo sapiens [9]): 134
IC50 [11]: 230 nM

CCCOCCn1c(=O)c(N2CCN(CC)CC2)nc2cnc(-c3ccc(OC)nc3)cc21
IC50 [14]: 0.22 nM

CCCOCCn1c(=O)c(N2CCN(CCCO)CC2)nc2cnc(-c3ccc(OC)nc3)cc21
Ratio IC50 (Homo sapiens [1]): 4260
IC50 [14]: 0.18 nM
Ratio IC50 (Homo sapiens [9]): 62

CCCOCCn1c(=O)c(N2CCNCC2)nc2cnc(-c3ccc(OC)nc3)cc21
remaining at 0.5 h [2]: 86%
fraction unbound [5]: 0.158
remaining at 0.5 h [7]: 86%
clearance [8]: 42 mL/min/kg
IC50 [11]: 670 nM

CCCOCCn1c(=O)c(N2CCCN(CCCO)CC2)nc2cnc(-c3ccc(OC)nc3)cc21
Ratio IC50 (Homo sapiens [1]): > 1860
Ratio IC50 (Homo sapiens [9]): 94

CCCOCCn1c(=O)c(N2CCCN(CCO)CC2)nc2cnc(-c3ccc(OC)nc3)cc21
Ratio IC50 (Homo sapiens [1]): > 2780
Ratio IC50 (Homo sapiens [9]): 70

CCCOCCn1c(=O)c(N2CCN(CC(C)(C)O)CC2)nc2cnc(-c3ccc(OC)nc3)cc21
Ratio IC50 (Homo sapiens [1]): 1370
Ratio IC50 (Homo sapiens [9]): 64

CCCOCCn1c(=O)c(N2C[C@H]3C[C@@H]2CN3)nc2cnc(-c3ccc(OC)nc3)cc21
Ratio IC50 (Homo sapiens [1]): 456
Ratio IC50 (Homo sapiens [9]): 93

CCCOCCn1c(=O)c(N2CCN([C@@H](C)[C@@H](C)O)CC2)nc2cnc(-c3ccc(OC)nc3)cc21 (racemic)
Ratio IC50 (Homo sapiens [1]): 1740
Ratio IC50 (Homo sapiens [9]): 134
IC50 [11]: 54 nM

CCCOCCn1c(=O)c(N2CCN([C@H](C)[C@@H](C)O)CC2)nc2cnc(-c3ccc(OC)nc3)cc21 (racemic)
Ratio IC50 (Homo sapiens [1]): 2090
IC50 [14]: 0.3 nM
Ratio IC50 (Homo sapiens [9]): 68

CCCOCCn1c(=O)c(N2CCN(CCO)CC2)nc2cnc(-c3ccc(OC)nc3)cc21 [PF-03049423]
IC50 [15]: > 2000 nM
Cp(f) (Rattus norvegicus [16]): 2.3 nM
Activity (Rattus norvegicus [17]): Non-toxic
IC50 [18]: > 2000 nM
Kp at 2 h [19]: 4
Ratio IC50 (Homo sapiens [1]): 2460
Tmax [20]: 1 h
IC50 [21]: > 2000 nM
IC50 [22]: > 2000 nM
IC50 [23]: > 2000 nM
remaining at 0.5 h [2]: 89%
bioavailability [24]: 92%
IC50 [25]: > 2000 nM
clearance [26]: 5.8 mL/min/kg
IC50 [14]: 0.2 nM
Ratio [27]: 11
dose excreted [28]: < 2%
half-life [29]: 17 h
IC50 [30]: > 2000 nM
IC50 [31]: > 2000 nM
bioavailability [32]: 69%
IC50 [33]: > 2000 nM
fraction unbound [5]: 0.171
fraction unbound [6]: 0.18
IC50 [34]: > 2000 nM
dose excreted [35]: < 2%
Fu (Plasma [12]): 18%
IC50 [36]: > 2000 nM
IC50 [37]: > 2000 nM
Activity (Rattus norvegicus [38]): Active
remaining at 0.5 h [7]: 85%
IC50 [39]: > 2000 nM
clearance [8]: 37 mL/min/kg
Activity (Rattus norvegicus [40]): Active
remaining at 6 h [41]: 2%
Activity (Rattus norvegicus [42]): 25 mmHg
PPB (Plasma [13]): 67.8%
IC50 [43]: > 2000 nM
Ratio IC50 (Homo sapiens [9]): 158
IC50 [44]: > 2000 nM
IC50 [11]: 1790 nM
